Test results: patent publication US20120058198A1, “METHODS FOR TREATING AND PREVENTING PNEUMONIA AND VENTILATOR-ASSOCIATED TRACHEOBRONCHITIS” (PULMATRIX, INC., priority 2009, published 2012)

Legend:
[1] = tested on: Serotype 3 Streptococcus pneumoniae; assay: Mouse S. pneumoniae infection model, nebulized calcium:sodium formulations 2 hours before infection; assay type: in vivo; settings: ampicillin synergy study; nebulized 2 h before infection; ~0.72 mg Ca/kg, ampicillin ~3 mg/kg
Method: Unless otherwise stated, exposure times were 3 minutes in duration. […] CFU were enumerated the following day.

bacteria = assay: Pass through assay, calcium chloride dose dependence (bacterium not named); assay type: cell-based; settings: amount delivered to mimetic, between the […] and […] solutions; from other analyses
Method: In these studies, the number of exposures via nebulization was different, making direct comparisons difficult. […] In this study, a single dose of each formulation was delivered to the apical surface of sodium alginate mimetic and bacteria were added immediately after exposure. […] In contrast, the 0.12M and 0.38M treatments had no effect.
All of the formulations tested above were formulated in isotonic saline. Thus, the inhibitory effects seen could be caused by the dual action of sodium and calcium ions in concert or alternatively, the effect could be driven entirely by calcium. To differentiate between these hypotheses, we tested additional calcium formulations based in water rather than saline.

Row | Compound | reduction in lung bacterial titers relative to saline control [1] [fold] | critical concentration of calcium needed for the inhibition of bacteria (bacteria)
1 | CC1(C)S[C@@H]2[C@H](NC(=O)[C@H](N)c3ccccc3)C(=O)N2[C@H]1C(=O)O [ampicillin] | 33 | –
2 | [Ca+2].[Cl-].[Cl-] [calcium chloride] | – | 3-4 μg of calcium per cm^2
